Reference: patent US20220110924A1, “METHODS AND COMPOSITIONS FOR GENETIC MODULATION OF TUMOR MICROENVIRONMENTS” (HUYABIO International, LLC, priority 2020, published 2022)

Columns and labels:
[1] = tolerability, treatment related adverse events (Example 4); type: in vivo, human
Method: The tolerability of the compounds of formula I, nivolumab, and a combination of the compounds of formula I and nivolumab were tested. The Phase 2 clinical dosage of 30 mg BIW of the compounds of formula I was administered.

[2] = system: RR/ATL; settings: cited from earlier work; for ORR: RR/ATL historical benchmark
[3] = system: RR/PTCL; settings: RR/PTCL historical benchmark, cited from earlier work
[4] = system: MC38 tumors; test: model of PD-1 antibody failure or stable disease, second-line therapy; type: in vivo; settings: second-line therapy in mice failing PD-1 Ab therapy, n=10/group, end of study
Method: To establish a model of PD-1 antibody failure or stable disease, 150 mice were initially treated biweekly for 3 weeks with first-line anti-PD-1 Ab (5 mg/kg, intraperitoneal administration).
Human cancer patients receiving ICI therapy often experience a transient response or stable disease, but eventually develop resistance and progress, a challenge to which major efforts are directed. […] To explore the effect of HBI-8000 plus ICI on acquired resistance, we developed a model based on the repeated observations that tumor-bearing mice treated initially (first-line) with single agent PD-1 Ab or PD-L1 Ab display […] patterns of growth: approximately 20% experience rapid progression, approximately 20% experience complete regression, and approximately 60% experience stable tumor growth (defined as 3 consecutive tumor volume measurements with no significant change) or slow progression (relative to rapid growth and progression), which somewhat approximates the clinical situation. Using the above model, we treated a large cohort of tumor-bearing mice with PD-1 Ab alone. Once they reached the criteria for stable disease or slow progression, they were randomized into 6 treatment arms as indicated in FIG. 13. We compared the effect of halting treatment (Vehicle), continuing to treat with PD-1 Ab, or continuing PD-1 Ab in combination with HBI-8000. […]

[5] = system: MC38 tumors; test: NanoString nCounter PanCancer Immune Profiling Panel gene expression; type: in vivo, C57BL/6 mice
Method: Gene expression studies were carried out using excised MC38 tumors (n=20 animals/treatment) isolated from syngeneic C57BL/6 mice treated for 7, 14, or 17 days with HBI-8000 (50 mg/kg, daily), anti-PD-1 (10 mg/kg, biweekly), or the combination of HBI-8000+anti-PD-1 (50 mg/kg, daily, 10 mg/kg, biweekly). At study termination, tumor samples from the treated mice were collected and fixed in formalin for 24 h and transferred to EtOH, followed by the preparation of formalin-fixed paraffin embedded blocks. Tumor sections (5-10 μm) were prepared from the formalin-fixed paraffin-embedded blocks, and total RNA was isolated from tissue scraped from 4 to 6 slides using the protocol recommended by NanoString Technologies (Seattle, Wash.). The nCounter PanCancer Immune Profiling panel developed and provided by NanoString Technologies was initially selected for expression analyses with an additional 20 genes added as a Panel Plus Codeset. The additional genes were predicted to be regulated by HBI-8000+/−ICI treatment. The nCounter assays were performed according to the manufacturer's instructions using the nCounter FLEX system.
Gene expression data were analyzed using nSolver software provided by NanoString Technologies, Inc. Raw data were normalized to the geometric mean values of the internal synthetic positive controls and geometric means of the housekeeping genes, as recommended by the manufacturer. The NanoString Technologies' nSolver Analysis Software 4.0 generated cell type scores, pathway scores, heatmaps, and individual gene normalized data from the nCounter PanCancer Immune Profiling Panel Plus dataset. The cell type score quantifies cell populations using marker genes for given cell types; by centering the mean at 0 for each cell type, immune cell type abundance can be compared on the same scale. The same method was used to generate immune-relevant pathway scores; summarizing the data from multiple genes in a pathway into a single score allowed for comparison between treatments for pathway analysis.
Normalized gene expression data for individual genes was exported from nSolver, annotated with percent of tumor growth inhibition (% TGI), and then imported into GraphPad Prism 7.04.
To investigate the mechanism of action of HBI-8000 in combination therapy with ICIs, larger groups of mice (n=20/group) were implanted with MC38 tumors to sufficiently power the statistical analysis. A baseline no-treatment tumor-bearing group was killed 1 day before initiating treatment. Mice in each treatment arm (n=20) were killed at days 7, 14, and 17 post treatment initiation. The NanoString nCounter PanCancer Immune Profiling Panel analysis allows for clustering of immune response-related genes into “gene sets” comprising a collection of genes selected as being representative of an element of the immune response (i.e., cell type, pathway), and provides a high level view of the antitumor response, which is depicted as scatterplots in FIG. 9A. While all the scores were elevated in the PD-1 Ab plus HBI-8000 combination agent cohorts, it is noteworthy that a subset of cell type scores was augmented by either PD-1 Ab or HBI-8000 alone as early as day 7.

NIVO: fully human monoclonal antibody directed against PD-1
Anemia, TRAE ([1]; G1-2): 0 n (% of N)
Diarrhea, TRAE ([1]; G1-2): 4 (6) n (% of N)
Fatigue, TRAE ([1]; G1-2): 0 n (% of N)
Hypophospatemia, TRAE ([1]; G1-2): 0 n (% of N)
Lymphocyte decrease, TRAE ([1]; G1-2): 0 n (% of N)
Neutrophil decrease, TRAE ([1]; G1-2): 0 n (% of N)
Platelet decrease, TRAE ([1]; G1-2): 0 n (% of N)
WBC decrease, TRAE ([1]; G1-2): 0 n (% of N)
Anemia, TRAE ([1]; G3): 0 n (% of N)
Diarrhea, TRAE ([1]; G3): 1 (2) n (% of N)
Fatigue, TRAE ([1]; G3): 0 n (% of N)
Hypophospatemia, TRAE ([1]; G3): 0 n (% of N)
Lymphocyte decrease, TRAE ([1]; G3): 0 n (% of N)
Neutrophil decrease, TRAE ([1]; G3): 0 n (% of N)
Platelet decrease, TRAE ([1]; G3): 0 n (% of N)
WBC decrease, TRAE ([1]; G3): 0 n (% of N)
Anemia, TRAE ([1]; G4): 0 n (% of N)
Diarrhea, TRAE ([1]; G4): 0 n (% of N)
Fatigue, TRAE ([1]; G4): 0 n (% of N)
Hypophospatemia, TRAE ([1]; G4): 0 n (% of N)
Lymphocyte decrease, TRAE ([1]; G4): 0 n (% of N)
Neutrophil decrease, TRAE ([1]; G4): 0 n (% of N)
Platelet decrease, TRAE ([1]; G4): 0 n (% of N)
WBC decrease, TRAE ([1]; G4): 0 n (% of N)
TSH increase, TRAE ([1]; less frequent TRAEs): 5 n
amylase increase, TRAE ([1]; less frequent TRAEs): 4 n
lipase increase, TRAE ([1]; less frequent TRAEs): 6 n
rash, TRAE ([1]; less frequent TRAEs): 10 n

Nc1cccc2c1CN(C1CCC(=O)NC1=O)C2=O (centres unmarked) [Lenalidomide]
ORR [2]: 42%
ORR in moga patients ([2]; RR/ATL patients who had received mogamulizumab): 18%

C#CCC(Cc1cnc2nc(N)nc(N)c2n1)c1ccc(C(=O)N[C@@H](CCC(=O)O)C(=O)O)cc1 (some centres unmarked) [Pralatrexate]
ORR [3]: 45%

Nc1cc(F)ccc1NC(=O)c1ccc(CNC(=O)/C=C/c2cccnc2)cc1 [HBI-8000, N-(2-amino-4-fluorophenyl)-4-[[[(2E)-1-oxo-3-(3-pyridinyl)-2-propen-1-yl]amino]methyl]benzamide]
share of TRAEs associated with the agent ([1]; 63 subjects with AE data): 39%
Anemia, TRAE ([1]; G1-2): 14 (22) n (% of N)
Diarrhea, TRAE ([1]; G1-2): 0 n (% of N)
Fatigue, TRAE ([1]; G1-2): 0 n (% of N)
Hypophospatemia, TRAE ([1]; G1-2): 6 (10) n (% of N)
Lymphocyte decrease, TRAE ([1]; G1-2): 0 n (% of N)
Neutrophil decrease, TRAE ([1]; G1-2): 8 (13) n (% of N)
Platelet decrease, TRAE ([1]; G1-2): 23 (37) n (% of N)
WBC decrease, TRAE ([1]; G1-2): 11 (17) n (% of N)
Anemia, TRAE ([1]; G3): 1 (2) n (% of N)
Diarrhea, TRAE ([1]; G3): 0 n (% of N)
Fatigue, TRAE ([1]; G3): 0 n (% of N)
Hypophospatemia, TRAE ([1]; G3): 4 (6) n (% of N)
Lymphocyte decrease, TRAE ([1]; G3): 0 n (% of N)
Neutrophil decrease, TRAE ([1]; G3): 5 (8) n (% of N)
Platelet decrease, TRAE ([1]; G3): 3 (5) n (% of N)
WBC decrease, TRAE ([1]; G3): 1 (2) n (% of N)
Anemia, TRAE ([1]; G4): 0 n (% of N)
Diarrhea, TRAE ([1]; G4): 0 n (% of N)
Fatigue, TRAE ([1]; G4): 0 n (% of N)
Hypophospatemia, TRAE ([1]; G4): 0 n (% of N)
Lymphocyte decrease, TRAE ([1]; G4): 0 n (% of N)
Neutrophil decrease, TRAE ([1]; G4): 1 (2) n (% of N)
Platelet decrease, TRAE ([1]; G4): 0 n (% of N)
WBC decrease, TRAE ([1]; G4): 0 n (% of N)
complete response (tumor regression) [4]: 2 mice
partial response [4]: 3 mice
cell type scores corresponding to dendritic cells, macrophages, NK cells, cytotoxic cells, and CD45 cells ([5]; as early as day 7): augmented
directed global significance score, Adaptive ([5]; day 17, vs. Control): 2
directed global significance score, Adhesion ([5]; day 17, vs. Control): 2
directed global significance score, Antigen processing ([5]; day 17, vs. Control): 1.8
directed global significance score, Apoptosis ([5]; day 17, vs. Control): 1.8
directed global significance score, B cell Functions ([5]; day 17, vs. Control): 1.5
directed global significance score, Basic Cell Function ([5]; day 17, vs. Control): 1.5
directed global significance score, CD molecules ([5]; day 17, vs. Control): 1.7
directed global significance score, Cancer progression ([5]; day 17, vs. Control): 1.8
directed global significance score, Cell cycle ([5]; day 17, vs. Control): 1.5
directed global significance score, Chemokine and Receptors ([5]; day 17, vs. Control): 1.5
directed global significance score, Class I MHC mediated antigen process ([5]; day 17, vs. Control): 1.5
directed global significance score, Complement pathway ([5]; day 17, vs. Control): 0
directed global significance score, Costimulation by the CD28 family ([5]; day 17, vs. Control): 1
directed global significance score, Cytokines and Receptors ([5]; day 17, vs. Control): 1.8
directed global significance score, Dendritic cell Functions ([5]; day 17, vs. Control): 1.8
directed global significance score, Humoral ([5]; day 17, vs. Control): 1.8
directed global significance score, Inflammation ([5]; day 17, vs. Control): 1.8
directed global significance score, Innate ([5]; day 17, vs. Control): 1.8
directed global significance score, Interferon ([5]; day 17, vs. Control): 1.5
directed global significance score, Interleukin ([5]; day 17, vs. Control): 1.5
directed global significance score, Leukocyte Function ([5]; day 17, vs. Control): 1.8
directed global significance score, MHC ([5]; day 17, vs. Control): 1.8
directed global significance score, MHC class II antigen presentation ([5]; day 17, vs. Control): 1.8
directed global significance score, Macrophage function ([5]; day 17, vs. Control): 1.8
directed global significance score, Microglial Functions ([5]; day 17, vs. Control): 3
directed global significance score, NK cell Function ([5]; day 17, vs. Control): 1.5
directed global significance score, Pathogen Receptors ([5]; day 17, vs. Control): 1.3
directed global significance score, Senescence ([5]; day 17, vs. Control): 1.3
directed global significance score, T-cell Functions ([5]; day 17, vs. Control): 1.5
directed global significance score, TLR ([5]; day 17, vs. Control): 1.5
directed global significance score, TNF superfamily ([5]; day 17, vs. Control): 1.5
directed global significance score, Transporter Function ([5]; day 17, vs. Control): 1.8

Nc1cc(F)ccc1NC(=O)c1ccc(CNC(=O)/C=C/c2cccnc2)cc1 [Epidaza (China)]
ORR (PMS) ([3]; value in brackets (PMS)): 35%
ORR [3]: 28%

O=c1[nH]cnc2c([C@@H]3N[C@H](CO)[C@@H](O)[C@H]3O)c[nH]c12 [Forodesine]
ORR [3]: 22%

B1: Mogamulizumab: RR/ATL treatment listed as historical benchmark (antibody, chains of the INN, looked up, V domains shown)
VH: EVQLVESGGDLVQPGRSLRLSCAASGFIFSNYGMSWVRQAPGKGLEWVATISSASTYSYYPDSVKGRFTISRDNAKNSLYLQMNSLRVEDTALYYCGRHSDGNFAFGYWGQGTLVTVSS
VL: DVLMTQSPLSLPVTPGEPASISCRSSRNIVHINGDTYLEWYLQKPGQSPQLLIYKVSNRFSGVPDRFSGSGSGTDFTLKISRVEAEDVGVYYCFQGSLLPWTFGQGTKVEIK
ORR [2]: 50%
